We go through 46 compounds from BindingDB's records for patent US20240425499 (Halia Therapeutics, 2024).

Bounds are passed on as bounds.

This assay concerns the target T1, Tyrosine-protein kinase receptor TYRO3 (Homo sapiens, UniProt Q06418).
T1 sequence (Q06418 whole entry): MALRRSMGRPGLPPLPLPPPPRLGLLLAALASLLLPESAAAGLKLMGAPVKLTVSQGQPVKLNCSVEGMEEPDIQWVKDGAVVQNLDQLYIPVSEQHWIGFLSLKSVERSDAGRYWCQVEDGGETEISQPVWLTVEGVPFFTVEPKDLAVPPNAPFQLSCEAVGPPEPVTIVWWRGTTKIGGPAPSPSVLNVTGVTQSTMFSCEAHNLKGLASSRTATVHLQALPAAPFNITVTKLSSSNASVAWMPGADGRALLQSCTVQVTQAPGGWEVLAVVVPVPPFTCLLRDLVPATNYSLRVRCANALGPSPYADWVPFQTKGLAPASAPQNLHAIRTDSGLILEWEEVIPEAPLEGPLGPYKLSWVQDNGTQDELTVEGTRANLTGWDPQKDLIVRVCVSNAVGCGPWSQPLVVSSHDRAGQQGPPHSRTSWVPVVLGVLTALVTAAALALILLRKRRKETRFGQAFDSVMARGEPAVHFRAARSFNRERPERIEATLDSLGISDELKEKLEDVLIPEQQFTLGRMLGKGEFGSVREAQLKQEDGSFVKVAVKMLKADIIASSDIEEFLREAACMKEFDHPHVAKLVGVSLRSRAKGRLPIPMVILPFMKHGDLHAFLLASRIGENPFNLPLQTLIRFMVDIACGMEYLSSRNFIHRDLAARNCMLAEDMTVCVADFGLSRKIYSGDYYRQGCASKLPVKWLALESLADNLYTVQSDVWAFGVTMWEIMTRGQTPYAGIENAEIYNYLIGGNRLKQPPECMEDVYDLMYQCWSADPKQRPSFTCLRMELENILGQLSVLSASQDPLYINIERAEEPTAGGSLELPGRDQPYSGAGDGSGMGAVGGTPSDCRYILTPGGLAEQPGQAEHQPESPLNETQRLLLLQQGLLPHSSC
Put plainly: TYRO3 Enzymatic Assay. How it is done:
Poly(Glu, Tyr) sodium salt (Glu:Tyr (4:1), quality level 200, molecular weight 5,000-20,000, obtained from Sigma Aldrich, catalogue #P7244, assay concentration 0.20 mg/mL) and recombinant human TYRO3 (obtained from ThermoFisher Scientific, catalogue #PV3828, assay concentration 2 nM) were mixed in assay buffer (20 mM Hepes pH 7.5, 10 mM MgCl2, 1 mM EGTA, 0.02% Brij35, 0.02 mg/ml BSA, 0.1 mM Na3VO4, 2 mM DTT, 1% DMSO, with added MnCl2 at a final concentration of 2 mM). Compounds of interest (in DMSO, serial 3-fold dilution from 10 μM to 0.5 nM) or control (1% DMSO) were dispensed into the kinase reaction mixture by Acoustic technology (Echo550; nanoliter range). After incubation at room temperature for 20 minutes, the kinase reaction was initiated by addition of [32P]-ATP (Specific activity 10 μCi/μl) and the mixture was incubated at room temperature for 2 hours. The reaction was then stopped by spotting the reaction mixture on strips of phosphocellulose P81 paper. Following washing, the radioactivity of the P81 paper was measured and kinase activity data were expressed as the percent remaining kinase activity in test samples compared to vehicle (dimethyl sulfoxide) reactions.
As for `Cc1cccc(-c2c[nH]c3ncc(-c4ccc(CN5CCCC(O)C5)cc4)cc23)c1` (stereo unspecified) [US20240425499, Compound 2], the IC50 was < 51 nM. Consider `OC1CCCN(Cc2ccc(-c3cnc4[nH]cc(-c5cccc(F)c5)c4c3)cc2)C1` (stereo unspecified) [US20240425499, Compound 4], for which the IC50 is < 51 nM. Regarding `OC1CCCN(Cc2ccc(-c3cnc4[nH]cc(-c5cccc(C(F)F)c5)c4c3)cc2)C1` (stereo unspecified) [US20240425499, Compound 9], the IC50 is < 51 nM.

Take `OC1CCCN(Cc2ccc(-c3cnc4[nH]cc(-c5cc(F)cc(F)c5)c4c3)cc2)C1` (stereo unspecified) [US20240425499, Compound 12]: the IC50 is < 51 nM. Regarding `OC1CCCN(Cc2ccc(-c3cnc4[nH]cc(-c5cc(F)cc(C(F)(F)F)c5)c4c3)cc2)C1` (stereo unspecified) [US20240425499, Compound 13], the concentration for half-maximal inhibition (IC50) was > 501 nM. Turning to `N#Cc1ccc(-c2c[nH]c3ncc(-c4ccc(CN5CCCC(O)C5)cc4)cc23)cc1` (stereo unspecified) [US20240425499, Compound 14], the concentration for half-maximal inhibition (IC50) was < 51 nM. The result for `N#Cc1cccc(-c2c[nH]c3ncc(-c4ccc(CN5CCCC(O)C5)cc4)cc23)c1` (stereo unspecified) [US20240425499, Compound 15] reads < 51 nM.

As to `Oc1ccc(-c2c[nH]c3ncc(-c4ccc(CN5CCCC(O)C5)cc4)cc23)cc1` (stereo unspecified) [US20240425499, Compound 16], the IC50 is < 51 nM.

Turning to `CN(C)Cc1ccc(-c2c[nH]c3ncc(-c4ccc(CN5CCCC(O)C5)cc4)cc23)cc1` (stereo unspecified) [US20240425499, Compound 17], the IC50 is < 51 nM. For the compound `COc1ccc(-c2c[nH]c3ncc(-c4ccc(CN5CCCC(O)C5)cc4)cc23)cc1C#N` (stereo unspecified) [US20240425499, Compound 18], the IC50 is < 51 nM. In the case of `OC1CCCN(Cc2ccc(-c3cnc4[nH]cc(-c5ccc(C(F)F)nc5)c4c3)cc2)C1` (stereo unspecified) [US20240425499, Compound 23], the IC50 is < 51 nM.

Turning to `COc1ccc(-c2c[nH]c3ncc(-c4ccc(CN5CC(O)CC(F)(F)C5)cc4)cc23)cn1` (stereo unspecified) [US20240425499, Compound 31], the IC50 is > 501 nM. With `COc1ccc(-c2c[nH]c3ncc(-c4ccc(CN5CC(CO)CC(F)(F)C5)cc4)cc23)cn1` (stereo unspecified) [US20240425499, Compound 33], the IC50 was > 501 nM. The result for `COc1ccc(-c2c[nH]c3ncc(-c4ccc(CN5CCCC(F)(F)C5)cc4)cc23)cn1` [US20240425499, Compound 41] reads > 501 nM. Next, `OC1CN(Cc2ccc(-c3cnc4[nH]cc(-c5ccc6[nH]ccc6c5)c4c3)cc2)C1` [US20240425499, Compound 44]: < 51 nM. Next, `COC1CCN(Cc2ccc(-c3cnc4[nH]cc(-c5ccc6[nH]ccc6c5)c4c3)cc2)CC1` [US20240425499, Compound 45]: < 51 nM.

Regarding `COC1CN(Cc2ccc(-c3cnc4[nH]cc(-c5ccc6[nH]ccc6c5)c4c3)cc2)C1` [US20240425499, Compound 46], the IC50 is < 51 nM.

On to `OC1CCCN(Cc2ccc(-c3cnc4[nH]cc(-c5cnc6[nH]ccc6c5)c4c3)cc2)C1` (stereo unspecified) [US20240425499, Compound 47], for which the half-maximal inhibitory concentration (IC50) is < 51 nM. `OC1CCCN(Cc2ccc(-c3cnc4[nH]cc(-c5ccc6cn[nH]c6c5)c4c3)cc2)C1` (stereo unspecified) [US20240425499, Compound 48]: the IC50 was < 51 nM. Next, `OC1CCCN(Cc2ccc(-c3cnc4[nH]cc(-c5cccc6[nH]ncc56)c4c3)cc2)C1` (stereo unspecified) [US20240425499, Compound 49]: < 51 nM; `OC1CCCN(Cc2ccc(-c3cnc4[nH]cc(-c5ccc6ocnc6c5)c4c3)cc2)C1` (stereo unspecified) [US20240425499, Compound 50]: < 51 nM.

As for `Cc1nc2cc(-c3c[nH]c4ncc(-c5ccc(CN6CCCC(O)C6)cc5)cc34)ccc2o1` (stereo unspecified) [US20240425499, Compound 51], the IC50 is < 51 nM. Regarding `OC1CCCN(Cc2ccc(-c3cnc4[nH]cc(-c5cc(F)c6ocnc6c5)c4c3)cc2)C1` (stereo unspecified) [US20240425499, Compound 52], the IC50 is < 51 nM. Turning to `N#Cc1cc(-c2c[nH]c3ncc(-c4ccc(CN5CCCC(O)C5)cc4)cc23)ccc1O` (stereo unspecified) [US20240425499, Compound 53], the concentration for half-maximal inhibition (IC50) was < 51 nM. Next, `COc1ccc(-c2c(Cl)[nH]c3ncc(-c4ccc(CN5CCCC(O)C5)cc4)cc23)cn1` (stereo unspecified) [US20240425499, Compound 56]: < 51 nM. The result for `CCc1[nH]c2ncc(-c3ccc(CN4CCCC(O)C4)cc3)cc2c1-c1cccc(F)c1` (stereo unspecified) [US20240425499, Compound 57] reads < 51 nM. Regarding `CCc1[nH]c2ncc(-c3ccc(CN4CCCC(O)C4)cc3)cc2c1-c1ccc(C(F)F)nc1` (stereo unspecified) [US20240425499, Compound 58], the IC50 is < 51 nM. The result for `CCc1[nH]c2ncc(-c3ccc(CN4CCCC(O)C4)cc3)cc2c1-c1ccc(OC)nc1` (stereo unspecified) [US20240425499, Compound 59] reads < 51 nM; that for `CCc1[nH]c2ncc(-c3ccc(CN4CCCC(O)C4)cc3)cc2c1-c1ccnc(F)c1` (stereo unspecified) [US20240425499, Compound 60], < 51 nM; that for `CCc1[nH]c2ncc(-c3ccc(CN4CCCC(O)C4)cc3)cc2c1-c1ccnc(C(F)F)c1` (stereo unspecified) [US20240425499, Compound 61], < 51 nM. Next, `COCc1[nH]c2ncc(-c3ccc(CN4CCCC(O)C4)cc3)cc2c1-c1cccc(F)c1` (stereo unspecified) [US20240425499, Compound 63]: < 51 nM; `COCc1[nH]c2ncc(-c3ccc(CN4CCCC(O)C4)cc3)cc2c1-c1ccnc(F)c1` (stereo unspecified) [US20240425499, Compound 65]: < 51 nM; `COCc1[nH]c2ncc(-c3ccc(CN4CCCC(O)C4)cc3)cc2c1-c1ccnc(C(F)F)c1` (stereo unspecified) [US20240425499, Compound 66]: < 51 nM. Consider `CCOCc1[nH]c2ncc(-c3ccc(CN4CCCC(O)C4)cc3)cc2c1-c1cccc(F)c1` (stereo unspecified) [US20240425499, Compound 67], for which the IC50 was < 51 nM. With `COc1ccc(-c2c[nH]c3ncc(-c4ccc(N5CCC(C)(O)CC5)cc4)cc23)cn1` [US20240425499, Compound 72], the IC50 is > 501 nM. Next, `COc1ccc(-c2c[nH]c3ncc(-c4ccc(C(C)N5CCCC(O)C5)cc4)cc23)cn1` (stereo unspecified) [US20240425499, Compound 75]: < 51 nM; `CC1(O)CCN(Cc2ccc(-c3cnc4[nH]cc(-c5ccc6[nH]ccc6c5)c4c3)cc2)CC1` [US20240425499, Compound 76]: < 51 nM; `OC1CCN(Cc2ccc(-c3cnc4[nH]cc(-c5ccc6[nH]ccc6c5)c4c3)cc2)CC1` [US20240425499, Compound 78]: < 51 nM. Next, `c1cc2cc(-c3c[nH]c4ncc(-c5ccc(CN6CCCCC6)cc5)cc34)ccc2[nH]1` [US20240425499, Compound 79]: < 51 nM. For the compound `OC1CCCN(Cc2ccc(-c3cnc4[nH]cc(-c5ccc6c(c5)CCNC6)c4c3)cc2)C1` (stereo unspecified) [US20240425499, Compound 80], the IC50 is < 51 nM. Next, `OCc1ccc(-c2c[nH]c3ncc(-c4ccc(CN5CCCC(O)C5)cc4)cc23)cc1` (stereo unspecified) [US20240425499, Compound 83]: < 51 nM; `Cc1nc2cc(-c3c[nH]c4ncc(-c5ccc(CN6CCCC(O)C6)cc5)cc34)cnc2o1` (stereo unspecified) [US20240425499, Compound 84]: < 51 nM; `CC(C)(O)c1ccc(-c2c[nH]c3ncc(-c4ccc(CN5CCCC(O)C5)cc4)cc23)cc1` (stereo unspecified) [US20240425499, Compound 85]: < 51 nM. Next, `OC1CCCN(Cc2ccc(-c3cnc4[nH]c(-c5ccoc5)c(-c5ccnc(F)c5)c4c3)cc2)C1` (stereo unspecified) [US20240425499, Compound 86]: < 51 nM; `CN(C)Cc1[nH]c2ncc(-c3ccc(CN4CCCC(O)C4)cc3)cc2c1-c1cccc(F)c1` (stereo unspecified) [US20240425499, Compound 87]: > 501 nM. The result for `OC1CCCN(Cc2ccc(-c3cnc4[nH]c(CC5CC5)c(-c5cccc(F)c5)c4c3)cc2)C1` (stereo unspecified) [US20240425499, Compound 90] reads < 51 nM.

The term IC50 denotes the concentration needed to halve the response being measured. Lower therefore signals higher potency.
